In patent US10441669B2, “Multifunctional chelators, complexes, and compositions thereof, and methods of using same” (ILLINOIS INSTITUTE OF TECHNOLOGY, priority 2013, dated 2019):
Like-named read-outs stand apart in the source and are kept apart here.

Columns and labels:
[1] = In vitro serum stability of 90Y-radiolabeled 5p-C-NETA and NETA-RGD; conditions: 37° C., pH 7, 14 days, ITLC
Experimental: (§3) In vitro serum stability of 5p-C-NETA and NETA-RGD conjugates radiolabeled with ^90Y or ^177Lu was performed to determine if NETA chelators or NETA-RGD conjugates radiolabeled with ^90Y or ^177Lu remained stable without loss of ^90Y or ^177Lu in human serum. This was assessed by measuring the transfer of ^90Y or ^177Lu from the complex to serum proteins over the course of 14 days using ITLC. ^90Y or ^177Lu-radiolabeled complexes was prepared from the reactions of the bifunctional chelators with ^90Y or ^177Lu at room temperature and directly used for serum stability studies (37° C., pH 7).

[2] = In vitro serum stability of 177Lu-radiolabeled 5p-C-NETA and NETA-RGD; conditions: 37° C., pH 7, 14 days, ITLC
Experimental: as §3

[3] = Stability and radioactivity level of 64Cu complexes in mice; type: in vivo; conditions: 64Cu complex
[4] = EDTA challenge of 64Cu-radiolabeled complexes of chelators A-F; type: physicochemical; conditions: EDTA 100-fold molar excess; for Bound complex (%): 64Cu complex, 37° C.
Experimental: ^64Cu-radiolabeled complexes were further evaluated for complex stability based on EDTA challenge. ^64Cu-radiolabeled complexes were freshly prepared and treated with a solution of EDTA at a 100-fold molar excess, and the resulting solution (pH 5.5) was incubated at 37° C. for 24 h. […] Among the complexes tested, ^64Cu-radiolabeled pentadentate chelator B was least tolerant of EDTA treated, and most of ^64Cu was dissociated from the complex (˜80%) at 24 h time point. ^64Cu-radiolabeled chelator C containing the carbonyl donor group was found dissociated rapidly in the presence of the excess EDTA, and 50% of the activity was transchelated by EDTA at 1 h time point. ^64Cu-radiolabeled chelators D and F with the respective hydroxyl and thiophenyl donor group were slower in dissociation than ^64Cu-radiolabeled chelators B and C and released >45% of ^64Cu at 24 h time point. Dissociation of the activity from the ^64Cu-radiolabeled chelators was also measured using radio-HPLC at 25 h time point (FIG. 5). The peak related to ^64Cu-EDTA (tR=2.5 min) was clearly separated from bound ^64Cu complex of the chelators. ^64Cu-radiolabeled complex of polar chelators E and F have the respective retention time at […] and 6.2 min, while other ^64Cu-radiolabeled complexes have similar retention time (tR=7˜8 min). The ^64Cu-radiolabeled chelators C and D gave a small peak (tR=˜3 min and tR=˜7 min, respectively).
^64Cu-radiolabeled complexes were prepared by reaction of each chelator (20 μg) with ^64Cu (60 μCi) in 0.25M NH4OAc buffer (pH 5.5) for 2 h at room temperature. The radiolabeled complexes were prepared as described above and directly used for the experiments. ^64Cu-radiolabeled complex was mixed with EDTA at a 100-fold molar excess. The resulting mixture was incubated for 24 h at 37° C. The stability of ^64Cu-radiolabeled complexes in the solution was evaluated using ITLC (20 mM EDTA in 0.15M NH4OAc). A solution of the radiolabeled complex in serum (3˜20 μL) was withdrawn at the designated time points and evaluated by ITLC as described above. Stability of the complexes was also evaluated at 25 h time point by HPLC (solvent A: 0.1% TFA in H2O, solvent B: 0.1% TFA in CH3CN, 0-100% B/15 min, flow rate: 1 mL/min). ^64Cu-EDTA complex was eluted early (tR=˜2.5 min), while ^64Cu-radiolabeled complexes of chelators A-D, E, and F have the respective retention time (tR=7˜8 min, tR=4.6 min, and tR=6.2 min).

[5] = In vitro serum stability of 64Cu-radiolabeled complexes of chelators A-F; type: in vitro ADME; conditions: human serum, over 2 days; listed as 64Cu-chelator E
Experimental: In vitro serum stability of the radiolabeled complexes was performed to determine if the chelators radiolabeled with ^64Cu remained stable without loss of the radioactivity in human serum. This was assessed by measuring the transfer of ^64Cu from the complex to human serum proteins using ITLC (20 mM EDTA in 0.15M NH4OAc, Table 2). ^64Cu-radiolabeled chelators were readily prepared from the reactions of the chelators with ^64Cu at room temperature. Essentially no unbound ^64Cu was detected in the reaction mixture at 2 h time point after the reaction at room temperature as determined by ITLC. The ^64Cu-radiolabeled chelators were directly used for serum stability studies (pH 7, 37° C.) without further purification. All ^64Cu-radiolabeled complexes remained intact in human serum for 2 days as evidenced by ITLC analysis (Supporting Information). […] A tiny amount of ^64Cu (<0.3%) was detected from other ^64Cu-complexes of chelators B, D-F.
The freshly prepared radiolabeled complexes were directly used for serum stability studies without further purification. ^64Cu-radiolabeled complex (85 μCi, 10 μL) was added to human serum (90 μL) in a microcentrifuge tube. The stability of ^64Cu-radiolabeled complexes in human serum was evaluated at 37° C. for 2 days. A solution of the radiolabeled complex in serum was withdrawn at the designated time points and evaluated by ITLC as described above.

[6] = In vitro serum stability of 177Lu-radiolabeled 3p-C complexes; type: in vitro ADME; conditions: human serum, 37° C., in 72 h
Experimental: (§1) A significant amount of the radioactivity from both ^90Y-3p-C-DEPA (4) and ^177Lu-3p-C-DEPA (4) was transchelated to serum (25% and 40% in 72 h, respectively). As expected, both ^90Y and ^177Lu complexes of 3p-C-NOTA […] were not stable in serum, and ˜80% of ^90Y and ˜36% of ^177Lu was released from the complexes on day 7. […] However, ^90Y-3p-C-NE3TA underwent rapid dissociation, losing ˜25% of ^90Y to serum in 3 days.
(§2) Human serum was purchased from Gemini Bioproducts (#100110). ^90Y- or ^177Lu-radiolabeled complexes (0.25M NH40OAc, pH 5.5) were prepared from the reaction of chelators with ^90Y or ^177Lu at room temperature or 37° C. Completion of radiolabeling was monitored by ITLC eluted, and the freshly prepared radiolabeled complexes were used for serum stability without further purification. ^90Y-3p-C-DETA, ^90Y-3p-C-NE3TA and ^90Y-3-C-NOTA were prepared by a reaction of 3p-C-DETA (1), 3p-C-NE3TA (2) and 3p-C-NOTA (3) (50 μg) with ^90Y (150 μCi) in 0.25 M NH4OAc buffer (pH 7.0). […] The stability of the radiolabeled complexes in human serum was evaluated at 37° C. over 14 days. The serum stability of the radiolabeled complexes was assessed by measuring the transfer of the radionuclide from each complex to serum proteins using ITLC eluted with CH3CN/H2O (3:2 v/v) or 20 mM EDTA in 0.15 M NH4OAc. […]

[7] = In vitro serum stability of 90Y-radiolabeled 3p-C complexes; type: in vitro ADME; conditions: human serum, 37° C., in 72 h (3 days)
Experimental: as §1, §2

[8] = pH 7
Experimental: as §3

[9] = design: species or system mice; conditions: mouse, in vivo
[10] = pH 7; remark: listed apart in the source
Experimental: as §3

## O=C(O)CN1CCN(CC(=O)O)CCN(CC(CCCCCc2ccc([N+](=O)[O-])cc2)N(CC(=O)O)CC(=O)O)CC1 (stereo not shown) [Chelator 5p-C-NETA, 2-({1-[4,7-bis(carboxymethyl)-1,4,7-triazonan-1-yl]-7-(4-nitrophenyl)heptan-2-yl}(carboxy-methyl)amino)acetic acid]
[1]
  stability of 90Y complex in human serum: remained stable in human serum without releasing the radioactivity into the serum
[2]
  stability of 177Lu complex in human serum: remained stable in human serum without releasing the radioactivity into the serum

## O=C(O)CN1CCN(CC(=O)O)CCN(Cc2ccccn2)CC1 [Chelator E, 2-[4-(carboxymethyl)-7-(pyridin-2-ylmethyl)-1,4,7-triazonan-1-yl]acetic acid]
[3]
  stability in mice and radioactivity level in blood and normal organs: stable in mice and displayed low radioactivity level in the blood and the normal organs
[4]; pH 5.5, ITLC, 0 h
  Bound complex (%): 99.7 ± 0.1%
[4]; pH 5.5, ITLC, 1 h
  Bound complex (%): 98.2 ± 0.3%
[4]; pH 5.5, ITLC, 4 h
  Bound complex (%): 92.6 ± 0.3%
[4]; pH 5.5, ITLC, 19 h
  Bound complex (%): 93.6 ± 0.1%
[4]; pH 5.5, ITLC, 24 h
  Bound complex (%): 94.3 ± 0.6%
[4]; pH 5.5, radio-HPLC, 25 h
  Bound complex (%): 93.1 ± 0.1%
[4]; 24 h time point
  64Cu activity dissociated from the complex / transferred to EDTA: ~5%
[5]
  64Cu dissociated/released from the complex in serum: No measurable radioactivity was released

## O=C(O)CN1CCN(CC(=O)O)CCN(CC(CCCc2ccc([N+](=O)[O-])cc2)N(CC(=O)O)CC(=O)O)CCN(CC(=O)O)CC1 (stereo not shown) [Chelator 3p-C-DEPA]
[6]
  177Lu transchelated to serum: 40%
[7]
  90Y transchelated/lost to serum: 25%

## N=C(N)NCCC[C@@H]1NC(=O)[C@H](CCCCNC(=S)Nc2ccc(CCCCCC(CN3CCN(CC(=O)O)CCN(CC(=O)O)CC3)N(CC(=O)O)CC(=O)O)cc2)NC(=O)[C@@H](Cc2ccc(O)cc2)NC(=O)[C@H](CC(=O)O)NC(=O)CNC1=O (stereo partly shown) [5p-C-NETA-RGD]
[8]
  stability of 90Y complex in human serum: remained quite stable in human serum over 2 weeks period
[9]
  tumor targeting and biodistribution profile: target tumors in mice and produced a favorable biodistribution profile with rapid blood clearance and low organ uptake
[10]
  stability of 177Lu complex in human serum: remained quite stable in human serum over 2 weeks period
